Columns and labels:
[1] = system: MatTek 300 skin; assay: Skin penetration study (Franz Cell) using MatTek skin; format: in vitro ADME; settings: for enhancement of penetration of AA2G over control: p value greater than 0.05
Procedure: In a 6-well plate, MatTek 300 skin (a skin modeling constructed by live cells, obtained from MatTek) was placed in well with 2.00 mL of incubation medium (also provide by MatTek). To the top of the skin, 400 ul of the sample was loaded. The skin was then incubated at 37° C. At 3 hours and 6 hours, the incubation medium was collected, and another 2.00 mL of medium was added into the well. The skin was then incubated until 24 hours. Finally, the medium was collected at 24 hours' time point. The collected mediums were filtered through a 0.45 um PTFE syringe filter into HPLC vials. The samples were then submitted to the UPLC study.
Waters ACQUITY H UPLC was used to analyze the collected samples from the penetration study (Franz Cell study).

[2] = Skin PAMPA study; format: in vitro ADME
Procedure: In vitro delivery of active ingredients in a formulation was evaluated using a skin PAMPA study. Active ingredients and pulverized thin fibers were added to the formulation and tested for permeation using PAMPA SC membrane for polar compounds. The following samples were prepared. Formulations are provided in Table 3 in percentages. • Formula 1 as shown in Table 3. • Formula 2: Formula 1 and 1% of microcrystalline cellulose (9 μm). • Formula 3: Formula 1 and the maximum amount of 1% dispersion (cellulose acetate fibers in water). • Formula 4: Formula 1 and 1% of microcrystalline cellulose (9 μm) and the maximum amount of 1% dispersion (cellulose acetate fibers in water).

enhancement of penetration of AA2G over control ([1]; six hours, formula containing cellulose acetate chopped fibers vs control without fiber) | enhancement of penetration of AA2G over control ([1]; three hours, formula containing cellulose acetate chopped fibers vs control without fiber) | enhancement of penetration of AA2G over control (difference) ([1]; twenty-four hours, formula containing cellulose acetate chopped fibers vs control without fiber) | delivery/penetration of AA2G into the skin in the presence of cellulose acetate chopped fibers ([1]; vs formulation without fiber, initial 6 hours after loading) | permeated amount of AA2G, FIG. 2B ([2]; span over all formulas shown) | SMILES | percentage % penetration of caffeine compared with AA2G [1] | penetration of caffeine in the presence of cellulose acetate chopped fibers (summary) ([1]; PAMPA) | enhancement of penetration of caffeine by addition of chopped fiber ([1]; human, 6 h) | permeation of caffeine in the presence of chopped fibers compared to the control, FIG. 4B ([2]; composition comprising chopped fibers) | permeating amount of caffeine, FIG. 4A ([2]; six hours, cellulose acetate nanofiber)
30% | 33% | less than 10% | enhanced | 0 to 300 μg/cm2 | O=C1O[C@H]([C@@H](O)CO)C(O)=C1O[C@H]1O[C@H](CO)[C@@H](O)[C@H](O)[C@H]1O [AA2G, ascorbic acid 2-glucoside] |  |  |  |  | 
 |  |  |  |  | Cn1c(=O)c2c(ncn2C)n(C)c1=O [caffeine] | greater than that of AA2G | slightly enhanced | < 10% | doubling | slightly increased

— patent US20210267872A1, “Delivery Of Cosmetic Agents, Compositions And Use Thereof” (ELC Management LLC, priority 2020, published 2021)
